Data as given in patent US8226963B2, “Feed-through lignin-pesticide compositions” (Wellmark International, priority 2005, dated 2012).
Where “and” joins values, the source holds several entries; their conditions need not be identical. Equal entries are not always repeated.

How the values were obtained:
Format in all cases: in vivo
[1] = Barium (BaSO4) passing into the manure of chickens; details: for Amount of Barium, % found in manure: 0.093% in feed
Source text: This example illustrates a determination of the maximum concentration of any active agent that will pass into the manure of chickens.
Briefly, chicken feed was formulated using a pulverized cattle bolus which contained barium in the form of BaSO4.

[2] = Methoprene found in manure of horses fed treated feed as top dressing; details: Average of Day 0-Day 10
Experimental: This example illustrates a study in horses comparing an inventive formulation containing a lignin-methoprene complex with a formulation containing free methoprene.
Four horses were fed the formulations for eleven days and their manure was tested every 24 hours.

[3] = Methoprene found in manure of cows fed treated feed as top dressing; details: Average of Day 1-Day 10
Experimental: This example illustrates a study in cattle comparing an inventive formulation containing a lignin-methoprene complex with a formulation containing free methoprene.
Four cows were fed the formulations for eleven days and their manure was tested every 24 hours.

[4] = Enteric Matrix/Coating of Methoprene Feed Through Study in chickens; details: Feed Rate 23.8 ppm
Source text: This example illustrates a study of methoprene versus enteric coated methoprene. The results below indicate that there is no difference in % recovery between technical grade methoprene and enteric coated methoprene or matrix treated methoprene.

[5] = Methoprene found in manure of cats fed treated cat food; details: for Calculated Methoprene (ppm) in manure: cats Q, S, T
Experimental: This example illustrates a study in cats comparing an inventive formulation containing lignin-methoprene complexes with a formulation containing free methoprene.
Three cats were fed the formulations for a week and their manure was tested every 24 hours.

[6] = horse Bettor Lad, AI fed 8.94 ppm

## O=S(=O)([O-])[O-].[Ba+2] [Barium, BaSO4]
[1]; 4 hr.
  % of initial BaSO4 found in manure: 1.78%
[1]; 4 hr. after feeding
  Amount of Barium, % found in manure: 0.00165%
[1]; 24 hr.
  % of initial BaSO4 found in manure: 48.90%
[1]; 24 hr. after feeding
  Amount of Barium, % found in manure: 0.0455%
[1]; 48 hr.
  % of initial BaSO4 found in manure: 59.90%
[1]; 48 hr. after feeding
  Amount of Barium, % found in manure: 0.0557%
[1]; 72 hr.
  % of initial BaSO4 found in manure: 50.60%
[1]; 72 hr. after feeding
  Amount of Barium, % found in manure: 0.0471%

## COC(C)(C)CCCC(C)C/C=C/C(C)=C/C(=O)OC(C)C (stereo not drawn) [free methoprene, methoprene]
[2]; [6]
  AI manure ppm: 1.29 ppm
  Percent pass through: 14.4%
[2]; horse Dancer, AI fed 8.61 ppm
  AI manure ppm: 1.30 ppm
  Percent pass through: 15.1%
[2]; horses, two per group
  Avg. % pass through by Group: 14.75%
[3]; cow 10 R/W, AI fed 8.94 ppm
  AI manure ppm: 0.16 ppm
  Percent pass through: 1.8%
[3]; cow 16 Black, AI fed 12.58 ppm
  AI manure ppm: 0.35 ppm
  Percent pass through: 2.8%
[3]; cows, two per group
  Avg. % pass through by Group: 2.3%
[4]
  % Recovery: 12.22%
[4]; feed Egg Buster
  Manure Rate ppm (methoprene): 2.91 ppm
[5]; cat food @ 36.2 ppm, 24 hr
  Day 1 Avg. methoprene in manure: 0.63 ppm
  Day 1 Avg. methoprene recovered in manure (%): (1.7%)
[5]; cat food @ 36.2 ppm, 48 hr
  Day 2 Avg. methoprene in manure: 2.2 ppm
  Day 2 Avg. methoprene recovered in manure (%): (6.1%)
[5]; cat food @ 36.2 ppm, 72 hr
  Day 3 Avg. methoprene in manure: 1.8 ppm
  Day 3 Avg. methoprene recovered in manure (%): (5.0%)
[5]; cat food @ 36.2 ppm, 96 hr
  Day 4 Avg. methoprene in manure: 1.9 ppm
  Day 4 Avg. methoprene recovered in manure (%): (5.2%)
[5]; cat food @ 36.2 ppm, Day 0 (0 hr)
  Calculated Methoprene (ppm) in manure: 0 ppm
[5]; cat food @ 36.2 ppm, Day 1 (24 hr), listed as Free Methoprene Lot # 491-166
  Calculated Methoprene (ppm) in manure: 0.6 ppm and 0.7 ppm
[5]; cat food @ 36.2 ppm, Day 2 (48 hr), listed as Free Methoprene Lot # 491-166
  Calculated Methoprene (ppm) in manure: 2.4 ppm and 2.5 ppm and 1.6 ppm
[5]; cat food @ 36.2 ppm, Day 3 (72 hr), listed as Free Methoprene Lot # 491-166
  Calculated Methoprene (ppm) in manure: 2.0 ppm and 1.5 ppm
[5]; range of daily averages Day 1-Day 4
  amount of methoprene recovered from the manure of cats: 1.7-6.1%
